Measured values reported in paper PMC10296720, “A Truncated 14-Amino-Acid Myelin Protein-Zero-Targeting Peptide for Fluorescence-Guided Nerve-Preserving Surgery” (Biomolecules, 2023).
In brackets after ≈: the same amount, converted by molar mass. Where two headings read alike, the source gives them in different places. Where a SMILES comes first, the peptide text is derived from it. The star is where a group is joined. X1 = CC1(C)C(/C=C/C=C/C=C2/N(CCCCS(=O)(=O)O)c3ccc(S(=O)(=O)O)cc3C2(C)C)=[N+](CCCCCC(=O)NCCN2C(=O)CC(*)C2=O)c2ccc(S(=O)(=O)[O-])cc21; X2 = CC1(C)C(=CC=CC=CC2=[N+](CCCCS(=O)(=O)[O-])c3ccc(S(=O)(=O)O)cc3C2(C)C)N(CCCCCC(=O)NCCN2C(=O)CC(*)C2=O)c2ccc(S(=O)(=O)O)cc21

Assays:
P0 = biological target: T1, P0 (Rattus norvegicus, UniProt P06907); experiment: P0 affinity (KD) via flow cytometry saturation binding; conditions: saturation binding on P0-expressing RT4 D6P2T Schwannoma cells, flow cytometry (APC-A), 0–2000 nM, triplicate, repeated at least two times per tracer
T1 construct: performed using P0-expressing RT4 D6P2T cells; host or cells: RT4 D6P2T myelinating Schwannoma cells
T1 sequence (P06907 30-248): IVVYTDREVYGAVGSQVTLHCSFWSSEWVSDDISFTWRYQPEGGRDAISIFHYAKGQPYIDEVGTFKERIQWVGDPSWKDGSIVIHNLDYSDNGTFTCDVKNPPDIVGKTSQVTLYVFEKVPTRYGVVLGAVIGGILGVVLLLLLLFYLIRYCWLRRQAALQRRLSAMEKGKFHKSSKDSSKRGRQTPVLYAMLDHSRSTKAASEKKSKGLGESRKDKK
Description: The mean fluorescence intensity values per sample were measured using an LSRII flow cytometer (BD Biosciences, Franklin Lakes, NJ, USA) with APC-A settings (635 nm laser and 750 nm long-pass filter) for a Cy5 dye. […] For the affinity assessment, fluorescence was measured using a FACSCanto II flow cytometry device (BD Biosciences, Franklin Lakes, NJ, USA) in the APC-A channel, and the accompanying FlowJo^TM v5 software (BD Biosciences, Franklin Lakes, NJ, USA) was used for further analysis.
Saturation binding experiments were performed for each of the fluorescent peptides in a concentration range of 0–2000 nM. All measurements were performed in triplicate, and experiments were repeated at least two times per tracer. The fluorescence was measured using a FACSCanto II flow cytometry device (BD Biosciences) in the APC-A channel, and the accompanying FlowJo software was used for further analysis. KD assessment was performed using the normalized geometric means, which were fitted with equations in GraphPad Prism 5 software.
A statistical evaluation to compare the affinity (KD) was performed using unpaired Student’s t-test. Values of p < 0.05 were considered significant.

Solubility = assay type: physicochemical; conditions: as previously described (refs 27, 31, 36)
Description: (§1) Determination of the chemical and photophysical properties (LogP, solubility, serum binding, net charge, and brightness) was performed as previously described.

LogP = assay type: physicochemical; conditions: as previously described (refs 27, 31, 36)
Description: as §1

Serum binding = assay type: in vitro ADME; conditions: as previously described (refs 27, 31, 36)
Description: as §1

Brightness (in HSA) = assay type: physicochemical, human
Description: as §1

Structure (SMILES): CC[C@H](C)[C@H](NC(=O)[C@H](CC(=O)O)NC(=O)[C@@H]1CCCN1C(=O)[C@@H]1CCCN1C(=O)[C@H](CC(N)=O)NC(=O)[C@H](CCCCN)NC(C)=O)C(=O)N[C@H](C(=O)NCC(=O)N[C@@H](CCCCN)C(=O)N[C@H](C(=O)N[C@@H](CSC1CC(=O)N(CCNC(=O)CCCCC[N+]2=C(/C=C/C=C/C=C3/N(CCCCS(=O)(=O)O)c4ccc(S(=O)(=O)O)cc4C3(C)C)C(C)(C)c3cc(S(=O)(=O)[O-])ccc32)C1=O)C(N)=O)[C@@H](C)O)C(C)C (some centres unmarked) [Cy5-P0_101–110] (Ac-KNPPDIVGKTC(X1)-NH2)
- Kd (P0): > 1000 nM
- Solubility (Solubility): >400 µM
- LogP (LogP; read-out: LogP): -0.73 ± 0.12
- fraction unbound (Serum binding): 0.45

Structure (SMILES): CC[C@H](C)[C@H](NC(=O)[C@H](CC(=O)O)NC(=O)[C@@H]1CCCN1C(=O)[C@@H]1CCCN1C(=O)[C@H](CC(N)=O)NC(=O)[C@H](CCCCN)NC(C)=O)C(=O)N[C@@H](CSC1CC(=O)N(CCNC(=O)CCCCC[N+]2=C(/C=C/C=C/C=C3/N(CCCCS(=O)(=O)O)c4ccc(S(=O)(=O)O)cc4C3(C)C)C(C)(C)c3cc(S(=O)(=O)[O-])ccc32)C1=O)C(N)=O (some centres unmarked) [Cy5-P0_101–106] (Ac-KNPPDIC(X1)-NH2)
- Solubility (Solubility): >400 µM
- LogP (LogP; read-out: LogP): -0.95 ± 0.05
- fraction unbound (Serum binding): 0.53

Structure (SMILES): CC(=O)N[C@@H](CCC(N)=O)C(=O)N[C@H](C(=O)N[C@H](C(=O)N[C@@H](CC(C)C)C(=O)N[C@@H](Cc1ccc(O)cc1)C(=O)N[C@H](C(=O)N[C@@H](Cc1ccccc1)C(=O)N[C@@H](CCC(=O)O)C(=O)N[C@@H](CCCCN)C(=O)N[C@H](C(=O)N1CCC[C@H]1C(=O)N[C@H](C(=O)N[C@@H](CCCNC(=N)N)C(=O)N[C@@H](Cc1ccc(O)cc1)C(=O)N[C@@H](CSC1CC(=O)N(CCNC(=O)CCCCC[N+]2=C(/C=C/C=C/C=C3/N(CCCCS(=O)(=O)O)c4ccc(S(=O)(=O)O)cc4C3(C)C)C(C)(C)c3cc(S(=O)(=O)[O-])ccc32)C1=O)C(N)=O)[C@@H](C)O)C(C)C)C(C)C)[C@@H](C)O)C(C)C (some centres unmarked) [Cy5-P0_112–125] (Ac-QVTLYVFEKVPTRYC(X1)-NH2)
- Kd (P0): 69 nM
- Solubility (Solubility): 71 µM (≈ 197 µg/mL)
- Solubility (Solubility; listed as Cy5P0_112–125): relatively low solubility
- LogP (LogP): −1.08 + 0.03

Structure (SMILES): CC(=O)NCC(=O)N[C@@H](CCCCN)C(=O)N[C@H](C(=O)N[C@@H](CO)C(=O)N[C@@H](CCC(N)=O)C(=O)N[C@H](C(=O)N[C@H](C(=O)N[C@@H](CC(C)C)C(=O)N[C@@H](Cc1ccc(O)cc1)C(=O)N[C@H](C(=O)N[C@@H](Cc1ccccc1)C(=O)N[C@@H](CCC(=O)O)C(=O)N[C@@H](CCCCN)C(=O)N[C@H](C(=O)N1CCC[C@H]1C(=O)N[C@H](C(=O)N[C@@H](CCCNC(=N)N)C(=O)N[C@@H](Cc1ccc(O)cc1)C(=O)N[C@@H](CSC1CC(=O)N(CCNC(=O)CCCCC[N+]2=C(/C=C/C=C/C=C3/N(CCCCS(=O)(=O)O)c4ccc(S(=O)(=O)O)cc4C3(C)C)C(C)(C)c3cc(S(=O)(=O)[O-])ccc32)C1=O)C(N)=O)[C@@H](C)O)C(C)C)C(C)C)[C@@H](C)O)C(C)C)[C@@H](C)O (some centres unmarked) [Cy5-P0_108–125] (Ac-GKTSQVTLYVFEKVPTRYC(X1)-NH2)
- Kd (P0): 83 nM
- LogP (LogP): −1.34 + 0.03
- fraction unbound (Serum binding): 0.31

Structure (SMILES): CC[C@H](C)[C@H](NC(=O)[C@H](CC(=O)O)NC(=O)[C@@H]1CCCN1C(=O)[C@@H]1CCCN1C(=O)[C@H](CC(N)=O)NC(=O)[C@H](CCCCN)NC(C)=O)C(=O)N[C@H](C(=O)NCC(=O)N[C@@H](CCCCN)C(=O)N[C@H](C(=O)N[C@@H](CO)C(=O)N[C@@H](CCC(N)=O)C(=O)N[C@H](C(=O)N[C@H](C(=O)N[C@@H](CC(C)C)C(=O)N[C@@H](Cc1ccc(O)cc1)C(=O)N[C@H](C(=O)N[C@@H](Cc1ccccc1)C(=O)N[C@@H](CCC(=O)O)C(=O)N[C@@H](CCCCN)C(=O)N[C@@H](CSC1CC(=O)N(CCNC(=O)CCCCCN2C(=CC=CC=CC3=[N+](CCCCS(=O)(=O)[O-])c4ccc(S(=O)(=O)O)cc4C3(C)C)C(C)(C)c3cc(S(=O)(=O)O)ccc32)C1=O)C(N)=O)C(C)C)[C@@H](C)O)C(C)C)[C@@H](C)O)C(C)C (some centres unmarked) [Cy5-P0_101–120] (Ac-KNPPDIVGKTSQVTLYVFEKC(X2)-NH2; N-terminus and C-terminus assumed)
- Solubility (Solubility): 15 µM (≈ 49.4 µg/mL)
- LogP (LogP; read-out: LogP): -0.99 ± 0.1
- fraction unbound (Serum binding): 0.34
- increase in brightness versus lead Cy5-P0_101–125 (Brightness (in HSA); in HSA): twofold increase in brightness
- Brightness (in HSA) (Brightness (in HSA); in human serum albumin): 137,940

Structure (SMILES): CC(=O)N[C@@H](Cc1ccc(O)cc1)C(=O)N[C@H](C(=O)N[C@@H](Cc1ccccc1)C(=O)N[C@@H](CCC(=O)O)C(=O)N[C@@H](CCCCN)C(=O)N[C@H](C(=O)N1CCC[C@H]1C(=O)N[C@H](C(=O)N[C@@H](CCCNC(=N)N)C(=O)N[C@@H](Cc1ccc(O)cc1)C(=O)N[C@@H](CSC1CC(=O)N(CCNC(=O)CCCCC[N+]2=C(/C=C/C=C/C=C3/N(CCCCS(=O)(=O)O)c4ccc(S(=O)(=O)O)cc4C3(C)C)C(C)(C)c3cc(S(=O)(=O)[O-])ccc32)C1=O)C(N)=O)[C@@H](C)O)C(C)C)C(C)C (some centres unmarked) [Cy5-P0_116–125] (Ac-YVFEKVPTRYC(X1)-NH2)
- Kd (P0): 147 ± 80 nM
- Solubility (Solubility): 150 µM (≈ 350 µg/mL)
- LogP (LogP): −1.58 + 0.03

Structure (SMILES): CC[C@H](C)[C@H](NC(=O)[C@H](CC(=O)O)NC(=O)[C@@H]1CCCN1C(=O)[C@@H]1CCCN1C(=O)[C@H](CC(N)=O)NC(=O)[C@H](CCCCN)NC(C)=O)C(=O)N[C@H](C(=O)NCC(=O)N[C@@H](CCCCN)C(=O)N[C@H](C(=O)N[C@@H](CO)C(=O)N[C@@H](CCC(N)=O)C(=O)N[C@H](C(=O)N[C@H](C(=O)N[C@@H](CC(C)C)C(=O)N[C@@H](CSC1CC(=O)N(CCNC(=O)CCCCC[N+]2=C(/C=C/C=C/C=C3/N(CCCCS(=O)(=O)O)c4ccc(S(=O)(=O)O)cc4C3(C)C)C(C)(C)c3cc(S(=O)(=O)[O-])ccc32)C1=O)C(N)=O)[C@@H](C)O)C(C)C)[C@@H](C)O)C(C)C (some centres unmarked) [Cy5-P0_101–115] (Ac-KNPPDIVGKTSQVTLC(X1)-NH2)
- Kd (P0): > 1000 nM
- Solubility (Solubility): >400 µM
- LogP (LogP; read-out: LogP): -0.8 ± 0.16
- fraction unbound (Serum binding): 0.4

Structure (SMILES): CC(=O)N[C@@H](CCCCN)C(=O)N[C@H](C(=O)N1CCC[C@H]1C(=O)N[C@H](C(=O)N[C@@H](CCCNC(=N)N)C(=O)N[C@@H](Cc1ccc(O)cc1)C(=O)N[C@@H](CSC1CC(=O)N(CCNC(=O)CCCCC[N+]2=C(/C=C/C=C/C=C3/N(CCCCS(=O)(=O)O)c4ccc(S(=O)(=O)O)cc4C3(C)C)C(C)(C)c3cc(S(=O)(=O)[O-])ccc32)C1=O)C(N)=O)[C@@H](C)O)C(C)C (some centres unmarked) [Cy5-P0_120–125] (Ac-KVPTRYC(X1)-NH2)
- Solubility (Solubility): 150 µM (≈ 269 µg/mL)
- LogP (LogP): −1.59 + 0.01
- fraction unbound (Serum binding): 0.29
